# Source: paper PMC4279406, “Simultaneous targeting of PI3Kδ and a PI3Kδ-dependent MEK1/2-Erk1/2 pathway for therapy in pediatric B-cell acute lymphoblastic leukemia” (Oncotarget, 2014)
# Experiments:
# [1] = tested on: primary B-ALL cells; assay: Viability of primary mononuclear cells from pediatric patients (CCK-8); format: cell-based, human; details: 72 h, 8/13 specimens
# Excerpt: (§1) Figure 3 PI3Kδ inhibition led to blockade of B cell leukemia cells proliferation via induction of cell cycle arrest and apoptosis Raji cells treated with X-370 for indicated times and at serial diluted concentrations were subjected to Annexin V-FITC/PI staining (A) and PI staining (B) and FACS analysis to show cell apoptosis and cell cycle distribution respectively. (C) X-370 inhibited proliferation of human leukemia primary cells. Freshly isolated human primary mononuclear cells from bone marrow samples of patients were treated with X-370 for 72 h and cell viability was assayed using CCK-8 assay. IC50s of each sample were plotted where 10 μM was assigned to specimens with IC50 >10 μM. Each symbol represents an individual patient sample. […]
# (§2) Cell viability was assessed using Cell Counting Kit (CCK-8, Dojindo, Japan) following the manufacturer's protocol and OD values were measured with a Spectramax M5 plate reader (Molecular Devices, Sunnyvale, CA)[45].
# (§3) Bone marrow was obtained from patients after provision of informed consent using guidelines approved by the Committee on the Use of Human Subjects in Research at Shanghai Jiaotong University or Shanghai Fudan University under a protocol approved by the Review Board. […] Cell viability and phosphorylated Akt and Erk1/2 were then detected.
# [2] = tested on: primary non B-ALL leukemia cells; assay: as above; format: cell-based, human; details: 72 h, 1/7 specimens
# Excerpt: as §1, §2, §3
# [3] = target: T1, Ret (Homo sapiens, UniProt P07949); assay: KinaseProfiler protein kinase activity; format: biochemical; details: 10 μM X-370
# T1 construct: purchased Millipore KinaseProfiler
# Experimental: (§4) In vitro kinase profile assays were analyzed by the Kinase Profiler Service (Millipore, United Kingdom) following its guidelines. A GST-tagged human p110δ and regulatory full-length p85 were co-expressed in insect cell Sf9. Recombinant protein was extracted by affinity purification. The PI3K kinase activity was determined in the increasing concentration of ATP and X-370 with PI3-Kinase HTRF™ Assay kit (Millipore) as described previously. […]
# (§5) Table S1: Inhibitory activity of X-370 against protein kinases
# (§6) kinome at 10 μM. The relative kianse activity left in the presence of 10 μM were shown (Mi llipore
# (§7) Kinase activity (% of control) Kinase activity (% of control) Kinase activity (% of control)
# (§8) CDK1/cyclinB 97 Lck activated 89 Ret 125
# [4] = target: T2, Aurora-A (Homo sapiens, UniProt O14965); assay: KinaseProfiler protein kinase activity; format: biochemical; details: 10 μM X-370
# T2 construct: purchased Millipore KinaseProfiler
# T2 sequence (O14965 whole entry): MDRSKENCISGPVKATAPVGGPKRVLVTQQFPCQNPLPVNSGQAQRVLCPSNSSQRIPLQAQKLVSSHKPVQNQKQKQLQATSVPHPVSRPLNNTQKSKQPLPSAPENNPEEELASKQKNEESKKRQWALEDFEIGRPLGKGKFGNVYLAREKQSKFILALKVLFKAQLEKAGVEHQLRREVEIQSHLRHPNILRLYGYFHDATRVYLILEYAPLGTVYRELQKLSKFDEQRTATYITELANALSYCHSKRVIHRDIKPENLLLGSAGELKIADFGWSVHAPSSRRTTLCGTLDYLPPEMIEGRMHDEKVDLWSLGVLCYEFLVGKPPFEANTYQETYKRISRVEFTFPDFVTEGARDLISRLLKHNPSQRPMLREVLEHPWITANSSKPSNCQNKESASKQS
# Experimental: as §4, §5, §6, §7, §8
# [5] = tested on: CK1(y); assay: KinaseProfiler protein kinase activity; format: biochemical; details: 10 μM X-370
# Experimental: as §4, §5, §6, §7, §8
# [6] = target: T3, p70S6K (Homo sapiens, UniProt P23443); assay: KinaseProfiler protein kinase activity; format: biochemical; details: 10 μM X-370
# T3 construct: purchased Millipore KinaseProfiler
# Experimental: as §4, §5, §6, §7, §8
# [7] = target: T4, PDK1 (Homo sapiens, UniProt O15530); assay: KinaseProfiler protein kinase activity; format: biochemical; details: 10 μM X-370
# T4 construct: purchased Millipore KinaseProfiler
# Experimental: as §4, §5, §6, §7, §8
# [8] = target: T5, c-RAF (Homo sapiens, UniProt P04049); assay: KinaseProfiler protein kinase activity; format: biochemical; details: 10 μM X-370
# T5 construct: purchased Millipore KinaseProfiler
# Experimental: as §4, §5, §6, §7, §8
# [9] = target: T6, cKit (Homo sapiens, UniProt P10721); assay: KinaseProfiler protein kinase activity; format: biochemical; details: 10 μM X-370
# T6 construct: purchased Millipore KinaseProfiler
# T6 sequence (P10721 26-976): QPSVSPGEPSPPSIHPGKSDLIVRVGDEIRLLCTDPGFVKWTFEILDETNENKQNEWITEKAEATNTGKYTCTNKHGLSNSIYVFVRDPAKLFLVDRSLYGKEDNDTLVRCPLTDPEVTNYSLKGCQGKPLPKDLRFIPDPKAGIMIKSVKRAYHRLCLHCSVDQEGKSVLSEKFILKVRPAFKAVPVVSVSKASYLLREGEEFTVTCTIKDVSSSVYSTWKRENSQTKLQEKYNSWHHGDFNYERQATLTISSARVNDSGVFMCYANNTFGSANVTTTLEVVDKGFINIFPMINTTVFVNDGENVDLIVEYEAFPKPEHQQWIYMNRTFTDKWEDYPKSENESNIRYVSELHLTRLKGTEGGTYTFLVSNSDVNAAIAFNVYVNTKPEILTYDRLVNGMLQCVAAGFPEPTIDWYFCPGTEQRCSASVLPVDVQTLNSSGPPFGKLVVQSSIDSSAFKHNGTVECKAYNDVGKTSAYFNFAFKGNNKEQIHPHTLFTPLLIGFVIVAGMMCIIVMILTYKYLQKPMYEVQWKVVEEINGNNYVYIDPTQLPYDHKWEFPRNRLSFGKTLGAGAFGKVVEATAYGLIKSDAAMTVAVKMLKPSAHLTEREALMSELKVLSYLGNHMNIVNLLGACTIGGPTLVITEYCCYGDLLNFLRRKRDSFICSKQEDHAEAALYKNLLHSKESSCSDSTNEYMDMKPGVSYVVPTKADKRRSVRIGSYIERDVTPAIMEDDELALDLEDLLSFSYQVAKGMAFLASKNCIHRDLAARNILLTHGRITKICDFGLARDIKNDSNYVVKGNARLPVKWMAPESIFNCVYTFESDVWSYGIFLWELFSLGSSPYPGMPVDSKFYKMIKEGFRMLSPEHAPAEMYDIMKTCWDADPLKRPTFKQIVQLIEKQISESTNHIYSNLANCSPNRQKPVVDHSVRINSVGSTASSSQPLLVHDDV
# Experimental: as §4, §5, §6, §7, §8
# [10] = target: T7, Rsk1 (Homo sapiens, UniProt Q15418); assay: KinaseProfiler protein kinase activity; format: biochemical; details: 10 μM X-370
# T7 construct: purchased Millipore KinaseProfiler
# T7 sequence (Q15418 whole entry): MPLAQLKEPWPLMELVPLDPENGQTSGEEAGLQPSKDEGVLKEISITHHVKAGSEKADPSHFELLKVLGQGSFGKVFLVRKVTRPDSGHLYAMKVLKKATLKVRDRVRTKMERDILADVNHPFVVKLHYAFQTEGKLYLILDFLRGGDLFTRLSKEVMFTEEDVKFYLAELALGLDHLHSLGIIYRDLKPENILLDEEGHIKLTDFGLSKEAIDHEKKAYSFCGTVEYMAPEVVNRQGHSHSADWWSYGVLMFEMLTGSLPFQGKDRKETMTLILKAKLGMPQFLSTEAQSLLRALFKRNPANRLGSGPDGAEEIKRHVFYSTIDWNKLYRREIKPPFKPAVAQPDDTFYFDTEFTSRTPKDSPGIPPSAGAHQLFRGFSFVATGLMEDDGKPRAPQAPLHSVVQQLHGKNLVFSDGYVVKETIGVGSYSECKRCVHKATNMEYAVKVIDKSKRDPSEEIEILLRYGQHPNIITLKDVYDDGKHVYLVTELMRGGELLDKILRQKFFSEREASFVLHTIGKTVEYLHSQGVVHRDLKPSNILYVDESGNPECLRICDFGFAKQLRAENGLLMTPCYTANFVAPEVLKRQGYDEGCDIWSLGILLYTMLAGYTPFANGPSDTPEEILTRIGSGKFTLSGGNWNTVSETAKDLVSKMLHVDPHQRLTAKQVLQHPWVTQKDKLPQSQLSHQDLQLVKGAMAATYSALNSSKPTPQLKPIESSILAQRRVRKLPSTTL
# Experimental: as §4, §5, §6, §7, §8
# [11] = target: T8, Fyn (Homo sapiens, UniProt P06241); assay: KinaseProfiler protein kinase activity; format: biochemical; details: 10 μM X-370
# T8 construct: purchased Millipore KinaseProfiler
# Experimental: as §4, §5, §6, §7, §8
# [12] = target: T9, Syk (Homo sapiens, UniProt P43405); assay: KinaseProfiler protein kinase activity; format: biochemical; details: 10 μM X-370
# T9 construct: purchased Millipore KinaseProfiler
# Experimental: as §4, §5, §6, §7, §8
# [13] = target: T10, ALK (Homo sapiens, UniProt Q9UM73); assay: KinaseProfiler protein kinase activity; format: biochemical; details: 10 μM X-370
# T10 construct: purchased Millipore KinaseProfiler
# T10 sequence (Q9UM73 19-1620): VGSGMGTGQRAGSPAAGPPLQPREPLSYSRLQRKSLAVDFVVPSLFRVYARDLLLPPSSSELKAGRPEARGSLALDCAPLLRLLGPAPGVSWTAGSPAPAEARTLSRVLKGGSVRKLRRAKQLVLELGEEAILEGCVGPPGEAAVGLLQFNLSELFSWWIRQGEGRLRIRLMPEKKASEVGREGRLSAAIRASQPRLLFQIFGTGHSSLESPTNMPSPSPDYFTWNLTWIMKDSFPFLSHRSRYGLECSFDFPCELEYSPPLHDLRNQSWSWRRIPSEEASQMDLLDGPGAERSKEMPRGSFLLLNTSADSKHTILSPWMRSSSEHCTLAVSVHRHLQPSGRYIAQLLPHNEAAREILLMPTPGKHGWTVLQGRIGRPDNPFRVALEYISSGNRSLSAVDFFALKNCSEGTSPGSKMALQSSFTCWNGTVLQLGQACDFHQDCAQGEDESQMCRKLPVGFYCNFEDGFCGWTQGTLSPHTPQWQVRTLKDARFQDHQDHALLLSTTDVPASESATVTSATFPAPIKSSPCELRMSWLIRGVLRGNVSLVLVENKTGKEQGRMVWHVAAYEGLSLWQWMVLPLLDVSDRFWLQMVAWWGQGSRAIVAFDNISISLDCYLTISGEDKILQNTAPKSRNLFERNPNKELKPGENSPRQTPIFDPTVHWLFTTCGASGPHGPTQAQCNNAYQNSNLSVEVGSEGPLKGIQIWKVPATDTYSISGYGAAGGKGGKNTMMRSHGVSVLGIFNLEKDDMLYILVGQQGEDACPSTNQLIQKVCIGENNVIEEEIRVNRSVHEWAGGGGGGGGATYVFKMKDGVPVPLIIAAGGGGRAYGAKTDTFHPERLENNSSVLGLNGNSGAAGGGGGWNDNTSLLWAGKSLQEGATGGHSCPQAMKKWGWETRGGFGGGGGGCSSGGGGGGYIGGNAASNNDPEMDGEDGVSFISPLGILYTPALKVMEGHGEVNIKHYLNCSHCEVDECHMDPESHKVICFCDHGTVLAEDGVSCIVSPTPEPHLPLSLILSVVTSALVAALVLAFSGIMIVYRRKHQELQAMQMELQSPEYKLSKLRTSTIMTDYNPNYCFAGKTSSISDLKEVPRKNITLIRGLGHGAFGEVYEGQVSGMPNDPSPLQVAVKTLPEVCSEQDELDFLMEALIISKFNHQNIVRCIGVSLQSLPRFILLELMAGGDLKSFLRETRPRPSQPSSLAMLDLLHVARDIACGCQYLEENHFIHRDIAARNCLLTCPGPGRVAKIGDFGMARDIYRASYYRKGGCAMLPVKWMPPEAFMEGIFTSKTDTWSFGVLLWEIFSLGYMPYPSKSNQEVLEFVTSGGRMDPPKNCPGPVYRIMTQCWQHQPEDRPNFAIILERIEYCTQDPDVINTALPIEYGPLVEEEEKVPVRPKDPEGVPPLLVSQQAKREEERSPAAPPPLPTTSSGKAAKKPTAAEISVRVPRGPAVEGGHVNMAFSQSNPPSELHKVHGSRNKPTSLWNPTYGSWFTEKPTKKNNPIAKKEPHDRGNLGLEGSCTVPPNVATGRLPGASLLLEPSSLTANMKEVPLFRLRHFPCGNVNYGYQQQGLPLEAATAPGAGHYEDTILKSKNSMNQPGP
# Experimental: as §4, §5, §6, §7, §8
# [14] = target: T11, mTOR (Homo sapiens, UniProt P42345); assay: KinaseProfiler protein kinase activity; format: biochemical; details: 10 μM X-370
# T11 construct: purchased Millipore KinaseProfiler
# Experimental: as §4, §5, §6, §7, §8
# [15] = target: T12, Abl (Homo sapiens, UniProt P00519); assay: KinaseProfiler protein kinase activity; format: biochemical; details: 10 μM X-370
# T12 construct: purchased Millipore KinaseProfiler
# T12 sequence (P00519 whole entry): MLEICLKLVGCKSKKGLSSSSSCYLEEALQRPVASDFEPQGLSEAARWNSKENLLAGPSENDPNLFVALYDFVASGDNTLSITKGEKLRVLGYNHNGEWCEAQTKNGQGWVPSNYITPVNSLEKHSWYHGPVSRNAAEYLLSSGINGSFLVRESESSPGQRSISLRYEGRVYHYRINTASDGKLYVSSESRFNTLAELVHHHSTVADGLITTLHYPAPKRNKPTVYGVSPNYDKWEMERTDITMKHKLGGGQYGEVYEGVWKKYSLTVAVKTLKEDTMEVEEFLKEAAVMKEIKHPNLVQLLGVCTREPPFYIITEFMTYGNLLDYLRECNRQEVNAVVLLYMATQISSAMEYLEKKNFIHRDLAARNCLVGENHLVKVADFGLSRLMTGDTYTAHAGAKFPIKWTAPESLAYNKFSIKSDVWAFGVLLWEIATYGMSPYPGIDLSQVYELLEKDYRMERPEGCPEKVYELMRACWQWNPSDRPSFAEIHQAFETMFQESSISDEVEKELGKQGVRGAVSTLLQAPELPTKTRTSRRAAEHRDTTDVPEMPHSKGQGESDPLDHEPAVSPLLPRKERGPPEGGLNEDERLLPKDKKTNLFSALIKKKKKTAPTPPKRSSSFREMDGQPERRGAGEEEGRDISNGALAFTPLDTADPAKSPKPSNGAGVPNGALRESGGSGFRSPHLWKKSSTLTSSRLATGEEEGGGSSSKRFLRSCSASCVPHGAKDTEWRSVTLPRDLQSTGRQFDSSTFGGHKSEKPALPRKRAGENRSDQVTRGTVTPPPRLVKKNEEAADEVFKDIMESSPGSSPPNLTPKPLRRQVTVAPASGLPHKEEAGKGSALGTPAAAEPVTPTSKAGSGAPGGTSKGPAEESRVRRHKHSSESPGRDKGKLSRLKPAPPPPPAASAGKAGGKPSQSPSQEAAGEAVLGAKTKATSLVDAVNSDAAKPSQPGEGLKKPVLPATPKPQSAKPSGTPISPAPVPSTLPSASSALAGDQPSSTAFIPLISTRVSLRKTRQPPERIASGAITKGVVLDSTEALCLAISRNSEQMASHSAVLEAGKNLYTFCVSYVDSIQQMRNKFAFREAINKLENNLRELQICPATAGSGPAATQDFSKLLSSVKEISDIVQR
# Experimental: as §4, §5, §6, §7, §8
# [16] = target: T13, PDGFR α (Homo sapiens, UniProt P16234); assay: KinaseProfiler protein kinase activity; format: biochemical; details: 10 μM X-370
# T13 construct: purchased Millipore KinaseProfiler
# Experimental: as §4, §5, §6, §7, §8
# [17] = target: T14, EphA1 (Homo sapiens, UniProt P21709); assay: KinaseProfiler protein kinase activity; format: biochemical; details: 10 μM X-370
# T14 construct: purchased Millipore KinaseProfiler
# Experimental: as §4, §5, §6, §7, §8
smiles,measurement,setting,value
O=C(N1CCCC1)N1CCC(n2cnc3c(-n4c(C(F)F)nc5ccccc54)nc(N4CCOCC4)nc32)CC1 [X-370],B-ALL specimens sensitive with IC50<1 μM,[1],61%
same,non B-ALL specimens sensitive with IC50<1 μM,[2],14%
same,Kinase activity (% of control),[3],125 % of control
same,Kinase activity (% of control),[4],73 % of control
same,Kinase activity (% of control),[5],64 % of control
same,Kinase activity (% of control),[6],88 % of control
same,Kinase activity (% of control),[7],94 % of control
same,Kinase activity (% of control),[8],50 % of control
same,Kinase activity (% of control),[9],104 % of control
same,Kinase activity (% of control),[10],88 % of control
same,Kinase activity (% of control),[11],97 % of control
same,Kinase activity (% of control),[12],85 % of control
same,Kinase activity (% of control),[13],79 % of control
same,Kinase activity (% of control),[14],47 % of control
same,Kinase activity (% of control),[15],130 % of control
same,Kinase activity (% of control),[16],121 % of control
same,Kinase activity (% of control),[17],99 % of control
